Consider 31 compounds from US20220388964A1 (HiberCell, Inc., priority 2019, published 2022).

In one assay the target is GCN2 (Homo sapiens, UniProt Q9P2K8). Put plainly: TR-FRET biochemical assay for inhibition of GCN2 (Example 106, for Example 1-4BB). As to conditions: Table 8.
GCN2, sequence (Q9P2K8 whole entry): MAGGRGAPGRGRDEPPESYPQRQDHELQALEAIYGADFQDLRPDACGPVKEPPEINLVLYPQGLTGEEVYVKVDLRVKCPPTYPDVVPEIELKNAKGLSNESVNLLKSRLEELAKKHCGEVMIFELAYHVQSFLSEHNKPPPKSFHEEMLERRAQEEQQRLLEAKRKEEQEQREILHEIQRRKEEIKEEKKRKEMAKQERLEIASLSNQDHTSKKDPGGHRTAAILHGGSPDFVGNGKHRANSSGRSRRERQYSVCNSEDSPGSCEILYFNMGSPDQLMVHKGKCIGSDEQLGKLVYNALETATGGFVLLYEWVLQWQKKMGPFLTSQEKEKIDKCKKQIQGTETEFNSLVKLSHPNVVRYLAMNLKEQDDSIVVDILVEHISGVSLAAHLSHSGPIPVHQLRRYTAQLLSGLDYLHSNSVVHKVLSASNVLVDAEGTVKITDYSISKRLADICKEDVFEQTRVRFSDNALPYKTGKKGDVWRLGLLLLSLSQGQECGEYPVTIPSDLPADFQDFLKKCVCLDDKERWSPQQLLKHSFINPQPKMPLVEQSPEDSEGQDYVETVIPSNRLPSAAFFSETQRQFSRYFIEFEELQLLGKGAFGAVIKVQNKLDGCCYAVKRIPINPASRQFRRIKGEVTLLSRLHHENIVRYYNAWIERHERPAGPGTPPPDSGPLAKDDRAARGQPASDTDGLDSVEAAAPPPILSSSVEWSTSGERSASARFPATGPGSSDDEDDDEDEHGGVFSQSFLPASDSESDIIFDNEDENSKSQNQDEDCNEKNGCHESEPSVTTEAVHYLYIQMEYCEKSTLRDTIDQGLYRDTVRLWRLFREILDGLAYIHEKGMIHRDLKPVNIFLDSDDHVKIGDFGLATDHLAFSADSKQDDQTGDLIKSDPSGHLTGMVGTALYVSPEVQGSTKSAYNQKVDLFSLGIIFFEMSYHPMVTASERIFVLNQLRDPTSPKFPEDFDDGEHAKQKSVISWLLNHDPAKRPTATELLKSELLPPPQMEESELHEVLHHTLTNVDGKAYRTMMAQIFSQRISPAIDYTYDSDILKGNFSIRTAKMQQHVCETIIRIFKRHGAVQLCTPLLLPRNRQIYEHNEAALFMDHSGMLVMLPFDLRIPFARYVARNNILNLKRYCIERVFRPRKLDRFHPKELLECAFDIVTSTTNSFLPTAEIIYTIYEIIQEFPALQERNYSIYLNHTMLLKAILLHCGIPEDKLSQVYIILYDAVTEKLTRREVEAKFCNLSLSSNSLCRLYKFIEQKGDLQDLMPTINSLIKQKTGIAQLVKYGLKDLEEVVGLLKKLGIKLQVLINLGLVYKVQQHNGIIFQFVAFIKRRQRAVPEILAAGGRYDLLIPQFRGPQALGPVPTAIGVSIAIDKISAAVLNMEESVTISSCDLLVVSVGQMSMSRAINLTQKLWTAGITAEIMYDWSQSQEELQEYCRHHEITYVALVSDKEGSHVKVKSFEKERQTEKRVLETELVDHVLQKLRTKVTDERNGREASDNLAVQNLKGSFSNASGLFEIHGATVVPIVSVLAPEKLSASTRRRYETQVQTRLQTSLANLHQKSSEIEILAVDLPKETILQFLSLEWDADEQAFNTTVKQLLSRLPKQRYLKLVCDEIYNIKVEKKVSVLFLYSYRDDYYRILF
With `Cc1ncc(F)cc1S(=O)(=O)Nc1ccc(F)c(-c2ccc3c(-c4ncc[nH]4)n[nH]c3c2F)c1F` [Example 2AB, N-(2,4-difluoro-3-(7-fluoro-3-(1H-imidazol-2-yl)-1H-indazol-6-yl)phenyl)-5-fluoro-2-methylpyridine-3-sulfonamide], the IC50 was < 500 nM.

For `O=S(=O)(Nc1ccc(F)c(-c2ccc3c(-c4ncc[nH]4)n[nH]c3c2F)c1F)c1ccc(Cl)cc1Cl` [Example 2BN, 2,4-dichloro-N-(2,4-difluoro-3-(7-fluoro-3-(1H-imidazol-2-yl)-1H-indazol-6-yl)phenyl)-benzenesulfonamide], the IC50 is < 500 nM.

For `O=c1[nH]cccc1S(=O)(=O)Nc1ccc(F)c(-c2ccc3c(-c4ncc[nH]4)n[nH]c3c2F)c1F` [Example 2AC, N-(2,4-difluoro-3-(7-fluoro-3-(1H-imidazol-2-yl)-1H-indazol-6-yl)phenyl)-2-oxo-1,2-dihydro-pyridine-3-sulfonamide], the IC50 is 2500 to 10000 nM.

Take `N#Cc1cccc(S(=O)(=O)Nc2ccc(F)c(-c3ccc4c(-c5ncc[nH]5)n[nH]c4c3F)c2F)c1` [Example 2BQ, 3-cyano-N-(2,4-difluoro-3-(7-fluoro-3-(1H-imidazol-2-yl)-1H-indazol-6-yl)phenyl)-benzenesulfonamide]: the IC50 was < 500 nM.

The compound `Cn1cc(S(=O)(=O)Nc2ccc(F)c(-c3ccc4c(-c5ncc[nH]5)n[nH]c4c3F)c2F)cn1` [Example 2C, N-(2,4-difluoro-3-(7-fluoro-3-(1H-imidazol-2-yl)-1H-indazol-6-yl)phenyl)-1-methyl-1H-pyrazole-4-sulfonamide] came in with an IC50 of 2500 to 10000 nM.

As for `CCn1cc(S(=O)(=O)Nc2ccc(F)c(-c3ccc4c(-c5ncc[nH]5)n[nH]c4c3F)c2F)cn1` [Example 2D, N-(2,4-difluoro-3-(7-fluoro-3-(1H-imidazol-2-yl)-1H-indazol-6-yl)phenyl)-1-ethyl-1H-pyrazole-4-sulfonamide], the IC50 was in the range of 2500 to 10000 nM.

In the case of `O=S(=O)(Nc1ccc(F)c(-c2ccc3c(-c4ncc[nH]4)n[nH]c3c2F)c1F)c1cc(Cl)ccc1Cl` [Example 2AX, 2,5-dichloro-N-(2,4-difluoro-3-(7-fluoro-3-(1H-imidazol-2-yl)-1H-indazol-6-yl)phenyl)-benzenesulfonamide], the IC50 was < 500 nM.

On to `COc1ncc(Cl)cc1S(=O)(=O)Nc1ccc(F)c(-c2ccc3c(C(=O)NCCN(C)C)n[nH]c3c2F)c1F` [Example 2CF, 6-(3-((5-chloro-2-methoxy-pyridine)-3-sulfonamido)-2,6-difluorophenyl)-N-(2-(di-methylamino)ethyl)-7-fluoro-1H-indazole-3-carboxamide], for which the IC50 was < 500 nM.

With `Cc1c(Cl)cccc1S(=O)(=O)Nc1ccc(F)c(-c2ccc3c(-c4ncc[nH]4)n[nH]c3c2F)c1F` [Example 2AY, 3-chloro-N-(2,4-difluoro-3-(7-fluoro-3-(1H-imidazol-2-yl)-1H-indazol-6-yl)phenyl)-2-methylbenzenesulfonamide], the IC50 is < 500 nM.

For `COc1ncc(F)cc1S(=O)(=O)Nc1ccc(F)c(-c2ccc3c(-c4ncc[nH]4)n[nH]c3c2F)c1F` [Example 2V, 5-fluoro-N-(2,4-difluoro-3-(7-fluoro-3-(1H-imidazol-2-yl)-1H-indazol-6-yl)phenyl)-2-methoxy-pyridine-3-sulfonamide], the IC50 was < 500 nM.

As to `COc1ncc(Cl)cc1S(=O)(=O)Nc1ccc(F)c(-c2ccc3c(NC(C)=O)n[nH]c3c2F)c1F` [Example 8, N-(6-(3-((5-Chloro-2-methoxypyridine)-3-sulfonamido)-2,6-difluorophenyl)-7-fluoro-1H-indazol-3-yl)acetamide], the IC50 is 500 to 2500 nM.

For `O=S(=O)(Nc1ccc(F)c(-c2ccc3c(-c4ncc[nH]4)n[nH]c3c2F)c1F)c1cccc(CO)c1` [Example 3, N-(2,4-Difluoro-3-(7-fluoro-3-(1H-imidazol-2-yl)-1H-indazol-6-yl)phenyl)-3-(hydroxymethyl)benzenesulfonamide], the IC50 was < 500 nM.

Still in this assay, the particulars now being: Table 9.
The compound `Cc1ncc(F)cc1S(=O)(=O)Nc1cccc(-c2ccc3c(-c4ncc[nH]4)n[nH]c3c2Cl)c1F` [Example 3N, N-(3-(7-chloro-3-(1H-imidazol-2-yl)-1H-indazol-6-yl)-2-fluorophenyl)-5-fluoro-2-methylpyridine-3-sulfonamide] came in with an IC50 of 500 to 2500 nM.

Compound `Cc1ccc(F)cc1S(=O)(=O)Nc1ccc(F)c(-c2cc3[nH]ncc3cn2)c1F` [Example 4BB] had a half-maximal inhibitory concentration (IC50) of 500 to 2500 nM.

`COc1ncc(F)cc1S(=O)(=O)Nc1ccc(F)c(-c2ccc3c(C(=O)NCCNC(C)=O)n[nH]c3c2F)c1F` [Example 23, N-(2-Acetamidoethyl)-6-(2,6-difluoro-3-((5-fluoro-2-methoxypyridine)-3-sulfonamido)phenyl)-7-fluoro-1H-indazole-3-carboxamide] returned an IC50 of 500 to 2500 nM.

For the compound `COc1ncccc1S(=O)(=O)Nc1nccc(-c2ccc3c(-c4ncc[nH]4)n[nH]c3c2F)c1C#N` [Example 3J, N-(3-cyano-4-(7-fluoro-3-(1H-imidazol-2-yl)-1H-indazol-6-yl)pyridin-2-yl)-2-methoxypyridine-3-sulfonamide], the IC50 lay in the range of 2500 to 10000 nM.

With `Cc1c(CO)cc(F)cc1S(=O)(=O)Nc1ccc(F)c(-c2ccc3c(-c4ncc[nH]4)n[nH]c3c2F)c1F` [Example 32, N-(2,4-Difluoro-3-(7-fluoro-3-(1H-imidazol-2-yl)-1H-indazol-6-yl)phenyl)-5-fluoro-3-(hydroxymethyl)-2-methylbenzenesulfonamide], the IC50 was < 500 nM.

Take `COc1ncc(Cl)cc1S(=O)(=O)Nc1cc(F)cc(-c2ccc3c(C(=O)N[C@H]4CCN(C)C4)n[nH]c3c2F)c1F` [Example 3BM, 6-(3-((5-chloro-2-methoxy-pyridine)-3-sulfonamido)-2,5-difluorophenyl)-7-fluoro-N-((S)-1-methylpyrrolidin-3-yl)-1H-indazole-3-carboxamide]: the IC50 was < 500 nM.

On to `COc1ncc(F)cc1S(=O)(=O)Nc1ccc(F)c(-c2ccc3c(C(=O)NC[C@H](O)CO)n[nH]c3c2F)c1F` [Example 3AI, 6-(2,6-difluoro-3-((5-fluoro-2-methoxypyridine)-3-sulfonamido)phenyl)-N-((R)-2,3-dihydroxypropyl)-7-fluoro-1H-indazole-3-carboxamide], for which the IC50 is < 500 nM.

For `Cc1nc(C)c(S(=O)(=O)Nc2cc(F)cc(-c3ccc4c(-c5ncc[nH]5)n[nH]c4c3F)c2F)s1` [Example 3BY, N-(2,5-difluoro-3-(7-fluoro-3-(1H-imidazol-2-yl)-1H-indazol-6-yl)phenyl)-2,4-dimethylthiazole-5-sulfonamide], the IC50 was < 500 nM.

In turn, `Cc1ccc(S(=O)(=O)Nc2ccc(F)c(-c3ccc4c(C(=O)NCCCN(C)C)n[nH]c4c3F)c2F)c(C)n1` [Example 3CO, N-(3-(dimethylamino)propyl)-6-(3-((2,6-dimethylpyridine)-3-sulfonamido)-2,6-difluorophenyl)-7-fluoro-1H-indazole-3-carboxamide] registered an IC50 of 500 to 2500 nM.

Take `COc1ncc(C#N)cc1S(=O)(=O)Nc1ccc(F)c(-c2ccc3c(C(N)=O)n[nH]c3c2F)c1F` [Example 4D]: the IC50 is < 500 nM.

Consider `COc1ncc(F)cc1S(=O)(=O)Nc1cccc(-c2ccc3c(C(=O)NCC[C@@H](O)CO)n[nH]c3c2F)c1F` [Example 3BH, 6-(2-fluoro-3-((5-fluoro-2-methoxypyridine)-3-sulfonamido)phenyl)-N-((R)-3,4-dihydroxybutyl)-7-fluoro-1H-indazole-3-carboxamide], for which the IC50 was 500 to 2500 nM.

As for `COc1ncc(F)cc1S(=O)(=O)Nc1ccc(F)c(-c2ccc3c(-c4nc(CO)c[nH]4)n[nH]c3c2F)c1F` [Example 3X, N-(2,4-difluoro-3-(7-fluoro-3-(4-(hydroxymethyl)-1H-imidazol-2-yl)-1H-indazol-6-yl)phenl)-5-fluoro-2-methoxypyridine-3-sulfonamide], the concentration for half-maximal inhibition (IC50) was < 500 nM.

On to `COc1ncc(Cl)cc1S(=O)(=O)Nc1cc(F)cc(-c2ccc3c(C(=O)N[C@@H]4CCN(C)C4)n[nH]c3c2F)c1F` [Example 3BL, 6-(3-((5-chloro-2-methoxy-pyridine)-3-sulfonamido)-2,5-difluorophenyl)-7-fluoro-N-((R)-1-methylpyrrolidin-3-yl)-1H-indazole-3-carboxamide], for which the IC50 is < 500 nM.

`COc1ncc(F)cc1S(=O)(=O)Nc1cc(F)cc(-c2ccc3c(C(=O)N[C@H]4CCN(C)C4)n[nH]c3c2F)c1F` [Example 3BT, 6-(3-((5-fluoro-2-methoxy-pyridine)-3-sulfonamido)-2,5-difluorophenyl)-7-fluoro-N-((S)-1-methylpyrrolidin-3-yl)-1H-indazole-3-carboxamide] came in with an IC50 of 500 to 2500 nM.

As for `Cc1ccc(S(=O)(=O)Nc2ccc(F)c(-c3ccc4c(C(=O)Nc5cnoc5)n[nH]c4c3F)c2F)c(C)n1` [Example 3DG, 6-(3-((2,6-dimethylpyridine)-3-sulfonamido)-2,6-difluoro-phenyl)-7-fluoro-N-(isoxazol-4-yl)-1H-indazole-3-carboxamide], the IC50 is < 500 nM.

Consider `COc1ncccc1S(=O)(=O)Nc1cccc(-c2ccc3c(-c4ncc[nH]4)n[nH]c3c2F)c1F` [Example 3W, N-(2-fluoro-3-(7-fluoro-3-(1H-imidazol-2-yl)-1H-indazol-6-yl)phenyl)-2-methoxypyridine-3-sulfonamide], for which the IC50 is < 500 nM.

As for `COc1ncc(F)cc1S(=O)(=O)Nc1ccc(F)c(-c2ccc3c(C(=O)NCC#N)n[nH]c3c2F)c1F` [Example 3AW, N-(cyanomethyl)-6-(2,6-difluoro-3-((5-fluoro-2-methoxypyridine)-3-sulfon-amido)phenyl)-7-fluoro-1H-indazole-3-carboxamide], the IC50 is < 500 nM.

Take `COc1ncc(F)cc1S(=O)(=O)Nc1ncc(F)c(-c2ccc3c(-c4nc(CO)c[nH]4)n[nH]c3c2F)c1F` [Example 3K, N-(3,5-difluoro-4-(7-fluoro-3-(4-(hydroxymethyl)-1H-imidazol-2-yl)-1H-indazol-6-yl)pyridin-2-yl)-5-fluoro-2-methoxypyridine-3-sulfonamide]: the IC50 is < 500 nM.

`COc1nscc1S(=O)(=O)Nc1cc(F)cc(-c2ccc3c(-c4ncc[nH]4)n[nH]c3c2F)c1F` [Example 3BZ, N-(2,5-difluoro-3-(7-fluoro-3-(1H-imidazol-2-yl)-1H-indazol-6-yl)phenyl)-3-methoxyisothiazole-4-sulfonamide]: the IC50 is < 500 nM.
